The subject of this assay is non-small cell lung cancer. The experiment in a line: Tumor shrinkage measured radiologically in non-small cell lung cancer patients treated with Sorafenib. Type of assay: in vivo, human. The following applies: non-small cell lung carcinoma; for mean % change in tumor size: measured radiologically.

`CNC(=O)c1cc(Oc2ccc(NC(=O)Nc3ccc(Cl)c(C(F)(F)F)c3)cc2)ccn1` [Sorafenib] showed an average tumor shrinkage (patients who showed stable disease, Sorafenib treatment) of 5.1%. The average tumor growth (patients whose disease progressed, Sorafenib treatment) was 20.6%. Moreover, the “mean % change in tumor size” value (patients with Progressive Disease in spite of Sorafenib treatment) was determined as 20.6% and the “mean % change in tumor size” value (patients with Stable Disease on Sorafenib treatment) was −5.1%.
